Molecular target: T1, STING (Homo sapiens, UniProt Q86WV6, G230A/H232R/R293Q/R71H)
T1 construct: host or cells: THP1-Dual KO-IFNAR2 cells
Assay: STING reporter assay: luciferase reporter activity in THP1-Dual KO-IFNAR2 cells stimulated with 2'3'cGAMP
Format: cell-based
Settings: 2′3′cGAMP 15 μM final, 24h, read-out: hSTING: EC50
In short: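 THP1-Dual KO-IFNAR2 cells (2×10E6 cells/mL) incubated with compounds at 0.0017-100 μM final plus Lipofectamine-transfected 2′3′cGAMP (15 μM final), 24 h at 37 °C, 5% CO2. Luciferase in supernatant read by QUANTI-Luc luminescence; EC50 derived.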

T1 sequence (Q86WV6 whole entry R71H/G230A/H232R/R293Q): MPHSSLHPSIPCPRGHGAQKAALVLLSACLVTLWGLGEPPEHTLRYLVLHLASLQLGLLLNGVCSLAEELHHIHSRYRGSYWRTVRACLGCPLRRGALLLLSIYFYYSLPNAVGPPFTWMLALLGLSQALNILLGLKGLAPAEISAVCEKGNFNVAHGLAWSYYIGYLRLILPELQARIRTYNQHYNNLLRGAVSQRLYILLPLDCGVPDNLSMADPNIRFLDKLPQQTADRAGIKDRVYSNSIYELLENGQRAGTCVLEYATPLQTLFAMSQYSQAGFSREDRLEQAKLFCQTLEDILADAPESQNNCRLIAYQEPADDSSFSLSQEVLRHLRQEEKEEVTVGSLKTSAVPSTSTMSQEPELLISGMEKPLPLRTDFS

Row | EC50 | SMILES
1 | 200 to 1000 nM | CN(CCNC(=O)C(=O)Nc1c[nH]c2cc(F)c(F)cc12)c1ccccn1 [Compound 322]
2 | 200 to 1000 nM | Cc1cc2c(cn1)C(NC(=O)C(=O)Nc1c[nH]c3cc(F)c(F)cc13)CCC2 (centres unmarked) [Compound 323]
3 | 200 to 1000 nM | O=C(NCc1ccnc(N2CCCCC2)c1)C(=O)Nc1c[nH]c2cc(F)c(F)cc12 [Compound 324]
4 | 200 to 1000 nM | O=C(NCCOc1cncc(C(F)(F)F)c1)C(=O)Nc1c[nH]c2cc(F)c(F)cc12 [Compound 325]
5 | 200 to 1000 nM | O=C(NCc1cccc(N2CCCCC2)n1)C(=O)Nc1c[nH]c2cc(F)c(F)cc12 [Compound 326]
6 | 200 to 1000 nM | O=C(NCCOc1ccc(C(F)(F)F)nc1)C(=O)Nc1c[nH]c2cc(F)c(F)cc12 [Compound 327]
7 | 200 to 1000 nM | CC(CN(C)c1ccccc1)NC(=O)C(=O)Nc1c[nH]c2cc(F)c(F)cc12 (centres unmarked) [Compound 328]
8 | 200 to 1000 nM | CN(CCNC(=O)C(=O)Nc1c[nH]c2cc(F)c(F)cc12)c1ccccc1 [Compound 331]
9 | 1000 to 5000 nM | O=C(Nc1c[nH]c2cc(F)c(F)cc12)C(=O)NC1CCN(c2cccnc2)C1 (centres unmarked) [Compound 332]
10 | 200 to 1000 nM | O=C(NCc1cnc(C2CCC(F)(F)CC2)c(F)c1)C(=O)Nc1c[nH]c2cc(F)c(F)cc12 [Compound 333]
11 | 200 to 1000 nM | O=C(NCc1ccc(Cl)c(C(F)(F)F)n1)C(=O)Nc1c[nH]c2cc(F)c(F)cc12 [Compound 334]
12 | 40 to 200 nM | O=C(NCc1cc(C(F)(F)F)c(Cl)cn1)C(=O)Nc1c[nH]c2cc(F)c(F)cc12 [Compound 335]
13 | 200 to 1000 nM | O=C(Nc1c[nH]c2cc(F)c(F)cc12)C(=O)NC1CCN(Cc2cccc(C(F)(F)F)c2)C1 (centres unmarked) [Compound 336]
14 | 200 to 1000 nM | O=C(Nc1c[nH]c2cc(F)c(F)cc12)C(=O)NC1CCN(c2ccc(C(F)(F)F)cn2)C1 (centres unmarked) [Compound 337]
15 | 200 to 1000 nM | O=C(NCc1cccc(C(F)(F)F)n1)C(=O)Nc1c[nH]c2cc(F)c(F)cc12 [Compound 338]
16 | 200 to 1000 nM | O=C(NCc1ccc(C(F)(F)F)c(Cl)c1)C(=O)Nc1c[nH]c2ccc(CCO)cc12 [Compound 339, N-(3-chloro-4-(trifluoromethyl)benzyl)-N′-(5-(2-hydroxyethyl)-1H-indol-3-yl)oxalamide]
17 | 1000 to 5000 nM | CC(C)(O)c1cccc(-c2ccc3[nH]cc(NC(=O)C(=O)NCc4ccc(C(F)(F)F)c(Cl)c4)c3c2)c1 [Compound 340]
18 | 200 to 1000 nM | CC(C)n1cc(-c2cc3c(NC(=O)C(=O)Nc4ccc(C(F)(F)F)cc4)c[nH]c3cc2F)cn1 [Compound 341, N-(6-fluoro-5-(1-isopropyl-1H-pyrazol-4-yl)-1H-indol-3-yl)-N′-(4-(trifluoromethyl)phenyl)oxalamide]
19 | 200 to 1000 nM | O=C(NCc1ccnc(C(F)(F)F)c1)C(=O)Nc1c[nH]c2cc(F)c(F)cc12 [Compound 342]
20 | 200 to 1000 nM | O=C(NCc1cncc(C(F)(F)F)c1)C(=O)Nc1c[nH]c2cc(F)c(F)cc12 [Compound 343]
21 | 200 to 1000 nM | O=C(NCc1ccc(C(F)(F)F)nc1)C(=O)Nc1c[nH]c2cc(F)c(F)cc12 [Compound 344]
22 | 200 to 1000 nM | CC(C)n1cc(-c2ccc3[nH]cc(NC(=O)C(=O)Nc4ccc(C(F)(F)F)cc4)c3c2)cn1 [Compound 346]
23 | 200 to 1000 nM | O=C(NC[C@@H](c1ccccc1)C(F)F)C(=O)Nc1c[nH]c2cc(F)c(F)cc12 [Compound 348]
24 | 1000 to 5000 nM | O=C(NCc1ccc(C(F)(F)F)c(Cl)c1)C(=O)Nc1c[nH]c2ccc(-c3cccc(CO)c3)cc12 [Compound 349, N-(3-chloro-4-(trifluoromethyl)benzyl)-N′-(5-(3-(hydroxymethyl)phenyl)-1H-indol-3-yl)oxalamide]
25 | 200 to 1000 nM | O=C(NCc1ccc(C(F)(F)F)c(Cl)c1)C(=O)Nc1c[nH]c2ccc(-c3cnn(CC(F)(F)F)c3)cc12 [Compound 350]
26 | 200 to 1000 nM | O=C(NCCc1cccc(C(F)(F)F)c1)C(=O)Nc1c[nH]c2cc(F)c(F)cc12 [Compound 351]

— patent US20230021448A1, “COMPOUNDS AND COMPOSITIONS FOR TREATING CONDITIONS ASSOCIATED WITH STING ACTIVITY” (IFM Due, Inc., priority 2019, published 2023)
